Measured values as given in US8956656B2, “Production of small particles” (Nano Fiber Matrices B.V., priority 2003, dated 2015).
One block for each compound: values may come before it.

Tests used:
Format in all cases: physicochemical
Gel test of gelators = details: 3 mg/mL in H2O
Procedure: Gel test: 0.3 mg/mL in H2O or PBS: clear gel; 0.5 mg/mL in H2O/DMSO (19:1): clear gel; 0.6 mg/mL in H2O/EtOH (19:1): clear gel; 25 mg/ml in EtOH: gel.
Gel test: 3 mg/mL in H2O: gel.
Gel test: 1.0 mg/mL in H2O: gel; acetone 7.0 mg/mL: clear gel.
Gel test: 3 mg/mL in H2O: clear gel.
Gel test: 3.0 mg/mL in H2O: gel

[1] = TEM analysis of particle size in gel or freeze-dried powder
Procedure: (§1) To a solution containing 4.6 mg (7.6×10^−3 mmol) of cHexAmMetOH gelator and 1.3 mg (3.8×10^−3 mmol) of danazol in 100 μL of DMSO, 900 μL of distilled water were quickly added. […] In a reference sample consisting only of danazol in 100 μL of DMSO and 900 μL of distilled water, rod-shaped danazol particles are 0.5-10 μm wide and 15-53 μm long.
as §1, with “7” for “4.6”, “cHexAmPheOCH2CH2OCH2CH2OH” for “cHexAmMetOH”
Example 6 was repeated but with an increased molar ratio of gelator to danazol, of 5:1.
To a solution containing 1.96 mg (2.9×10^−3 mmol) of cHexAm(PheAQ)(CH2CH2OCH2CH2OH)2 gelator and 1.0 mg (2.9×10^−3 mmol) of danazol in 50 μL of DMSO, 950 μL of distilled water were quickly added.
In a reference sample consisting only of danazol in 100 μL of DMSO to which 900 μL of distilled water was added, rod-shaped danazol particles were formed, which were 0.5-10 μm wide and 15-53 μm long.
Example 8 was repeated with an increased molar ratio of gelator to danazol (from 1:1 to 2:1).
Freeze-drying of a gel containing cHexAmPheOCH2CH2OCH2CH2OH and danazol in a 5:1 molar ratio, in DMSO/water mixture (50 μL/950 μL) yielded a dry powder of gelator and danazol.
Freeze-drying of a gel containing cHexAm(PheAQ)(CH2CH2O CH2CH2OH)2 and danazol in a 5:1 molar ratio, in DMSO/water (50 μL/950 μL) yielded a dry powder of gelator and danazol. […]

[2] = Optical microscopy of gels and reference solutions
Procedure: Furosemide, 5 mg, (15×10^−3 mmol), together with 12.5 mg (20×10^−3 mmol) of cHexAm(PheAmBn)(CH2CH2OCH2CH2OH)2 (A), or 12.9 mg (20×10^−3 mmol) of cHexAm(PheAmPhOMe)(CH2CH2OCH2CH2OH)2 (B), or 18.4 mg (20×10^−3 mmol) of cHexAmPheOCH2CH2OCH2CH2OH(C), were dissolved in 50 μL of propylene glycol, 50 μL of PEG400, and 900 μL of water by heating until a clear solution was obtained. As reference, a sample without gelator was prepared (D).
Danazol, 1 mg, (3×10^−3 mmol), together with 3.9 mg (6×10^−3 mmol) of cHexAm(PheAmAQ)(CH2CH2OCH2CH2OH)2 (A), or 5.4 mg (6×10^−3 mmol) of cHexAmPheOCH2CH2OCH2CH2OH (B), were dissolved in 50 μL of DMSO and 950 μL of distilled water by heating until a clear solution was obtained. As reference, a sample without gelator was prepared (C).
Cyclosporin A, 2.5 mg, (2.1×10^−3 mmol), together with 6.3 mg (10×10^−3 mmol) of cHexAm(PheAmBn)(CH2CH2OCH2CH2OH)2 (A) or 9.2 mg (10×10^−3 mmol) of cHexAmPheOCH2CH2OCH2CH2OH (B), were dissolved in 25 μL of propylene glycol, 25 μL of PEG400, and 450 μL of distilled water by heating until a clear solution was obtained. As reference, a sample without gelator was prepared (C).

[3] = Stability in time of pyrene particles in a gel (TEM)
Procedure: To determine the stability in time of pyrene particles in a gel, samples were prepared as in Example 3 and examined with TEM after 7 days, 18 days, 1 month and 2 months. As reference, samples containing only pyrene in DMSO/H2O (100 μL/900 μL) were also prepared. Moreover, to determine the effect of the gelator in solution, i.e. not of the gel, samples containing 4 mg (6.0×10^−3 mmol) of cHexAm(PheAQ)(CH2CH2OCH2CH2OH)2 gelator, 1.22 mg (6.0×10^−3 mmol) of pyrene, 100 μL of DMSO and 900 μL of 1N HCl were prepared. The presence of HCl causes the gelator to dissolve and therefore the sample remains a solution. All samples were kept at room temperature, in the dark. FIG. 1: after 7 days only very few particles, 37-185 nm, are present in the sample; after 18 days more particles, 30-190 nm, can be observed; after 1 month also some crystals, ˜150 nm, can be observed; after 2 months more crystals with sizes ranging from 80 to 200 nm are present. FIG. 2: after 7 days crystals, 0.2-3 μm, can be observed; after 18 days more of such crystals can be observed; after 1 month also larger crystals, 6 μm, can be seen; after 2 months more of such crystals can be observed. FIG. 3: after 7 days, 18 days or 1 month crystals, 0.4 to 9 μm, are present; after 2 months crystals, 2-12 μm, can be observed.

[4] = gel of cHexAm(PheAQ)(CH2CH2OCH2CH2OH)2, 1:1 molar
[5] = gel of cHexAm(PheAQ)(CH2CH2OCH2CH2OH)2, gelator:danazol 2:1
[6] = gel of cHexAm(PheAQ)(CH2CH2OCH2CH2OH)2, gelator:danazol 5:1
[7] = gel of cHexAmPheOCH2CH2OCH2CH2OH, 2:1 molar
[8] = gel of cHexAmPheOCH2CH2OCH2CH2OH, gelator:danazol 5:1
[9] = reference sample, only danazol in 100 μL DMSO and 900 μL water
[10] = FIG. 6 (b): gel of cHexAmPheOCH2CH2OCH2CH2OH, DMSO/water

SMILES: O=C(O)[C@@H]1C[C@H](C(=O)O)C[C@H](C(=O)N[C@@H](Cc2ccccc2)C(=O)NCc2ccccc2)C1 [cHex(AmPheAmBn)(COOH)2]
Gel test (Gel test of gelators): gel

SMILES: COc1ccc(NC(=O)[C@H](Cc2ccccc2)NC(=O)[C@@H]2C[C@H](C(=O)O)C[C@H](C(=O)O)C2)cc1 [cHex(AmPheAmPhOMe)(COOH)2]
Gel test (Gel test of gelators): clear gel

average size of danazol particles ([1]; freeze-dried powder of gel of cHexAm(PheAQ)(CH2CH2O CH2CH2OH)2, 5:1, DMSO/water 50/950 μL): 14-70 nm
width of very few rod-shaped danazol particles ([1]; freeze-dried powder of gel of cHexAmPheOCH2CH2OCH2CH2OH, 5:1): 500-900 nm
average size of danazol particles ([1]; freeze-dried powder of gel of cHexAmPheOCH2CH2OCH2CH2OH, 5:1, DMSO/water 50/950 μL): 20 nm
length of some rod-shaped danazol particles [1, 4]: 9 μm
width of some rod-shaped danazol particles [1, 4]: 0.7 μm
average size of danazol particles ([1]; gel of cHexAm(PheAQ)(CH2CH2OCH2CH2OH)2, 1:1 molar, DMSO/water 50/950 μL): 140-700 nm
average size of danazol particles [1, 5]: 28 nm
size of very few danazol particles [1, 5]: 10 μm
average size of danazol particles [1, 6]: 14 nm
size of some danazol particles [1, 6]: 400 nm
length of rod-shaped danazol particles ([1]; gel of cHexAmMetOH, 2:1 molar, DMSO/water 100/900 μL): 1-10 μm
length of rod-shaped danazol particles [1, 7]: 0.6-6 μm
width of rod-shaped danazol particles [1, 7]: 0.2-0.6 μm
average size of danazol particles [1, 8]: 20 nm
size of some danazol particles [1, 8]: approximately 200 nm
length of rod-shaped danazol particles [1, 9]: 15-53 μm
width of rod-shaped danazol particles [1, 9]: 0.5-10 μm
amorphous globular particles ([2]; FIG. 6 (a): gel of cHexAm(PheAmAQ)(CH2CH2OCH2CH2OH)2, DMSO/water): < 2 μm
amorphous globular particles [2, 10]: < 2 μm
some needle-shaped crystals (long axis) [2, 10]: 25-50 μm
rod-shaped crystals ([2]; FIG. 6 (c): reference without gelator, DMSO/water): 20-120 μm
SMILES: C#C[C@]1(O)CC[C@H]2[C@@H]3CCC4=Cc5oncc5C[C@]4(C)[C@H]3CC[C@@]21C [danazol]

butterfly-shaped crystals (long axis) ([2]; FIG. 5 (a): gel of cHexAm(PheAmBn)(CH2CH2OCH2CH2OH)2, PG/PEG400/water): ~25 μm
butterfly-shaped crystals (long axis) ([2]; FIG. 5 (b): gel of cHexAm(PheAmPhOMe)(CH2CH2OCH2CH2OH)2, PG/PEG400/water): ~25 μm
globular crystals ([2]; FIG. 5 (c): gel of cHexAmPheOCH2CH2OCH2CH2OH, PG/PEG400/water): ~25 μm
rod-shaped crystals (long axis) ([2]; FIG. 5 (d): reference without gelator, PG/PEG400/water): 25-250 μm
SMILES: NS(=O)(=O)c1cc(C(=O)O)c(NCc2ccco2)cc1Cl [furosemide]

SMILES: c1cc2ccc3cccc4ccc(c1)c2c34 [pyrene]
size of pyrene particles ([3]; gel of cHexAm(PheAQ)(CH2CH2OCH2CH2OH)2, DMSO/H2O, room temperature, dark, after 7 days (FIG. 1)): 37-185 nm
size of pyrene crystals ([3]; gel of cHexAm(PheAQ)(CH2CH2OCH2CH2OH)2, after 1 month (FIG. 1)): ~150 nm
size of pyrene particles ([3]; gel of cHexAm(PheAQ)(CH2CH2OCH2CH2OH)2, after 18 days (FIG. 1)): 30-190 nm
size of larger pyrene crystals ([3]; gelator in solution, DMSO/1N HCl, after 1 month (FIG. 2)): 6 μm
size of pyrene crystals ([3]; gelator in solution, DMSO/1N HCl, after 7 days (FIG. 2)): 0.2-3 μm
size of pyrene crystals ([3]; reference, only pyrene in DMSO/H2O, after 2 months (FIG. 3)): 2-12 μm
